Here are results for two compounds from patent US20090098652A1, “SELF ASSEMBLING PEPTIDE SYSTEMS AND METHODS” (Northwestern University, priority 2007, published 2009).

The test system of series [1] is P19 cells in suspension aggregates. Nature of the series: Transfection of P19 suspension aggregates with GFP plasmid, read by qPCR and Western blot. The series is classed as cell-based. Particulars: comparison of PA system, peptide and Lipofectamine. From the text:
In the figure, “peptide amphiphile” is the DNA-binding PA with sequence […](N^ε-palmitoyl) and “peptide” is a peptide with sequence […].
In some embodiments, the invention described here improves on this system by incorporating one or more peptides which are bioactive and direct the complex to the nucleus. It is designed, in some embodiments, to form an alpha helix which binds to the major groove of the double helix of DNA. In addition, it is a self-assembling peptide amphiphile (PA) which forms high aspect ratio nanostructures. When complexed with DNA, these nanostructures are, on average, smaller than the nanostructures produced by LIPOFECAMINE as determined by dynamic light scattering. The present invention is not limited to a particular mechanism. Indeed, an understanding of the mechanism is not necessary to practice the present invention. Nonetheless, it is contemplated that the system works by complexing and condensing the DNA through specific binding to the major groove and electrostatic screening. This DNA-PA complex is similar to the LIPOFECTAMINE complex, however it includes a peptide region containing a nuclear localization signal which directs the cell to move this complex through the cytoplasm and into the nucleus where the genes encoded in the DNA are subsequently expressed. […]
Background: Quantitative PCR measures a nucleic acid by following its amplification.

Another series concerns P19 cells. Particulars: flow cytometry; all tested concentrations.

Where a SMILES comes first, the peptide text is derived from it. The star is where a group is joined. Palmitoyl = CCCCCCCCCCCCCCCC(=O)*

For RKTAKRLGVYQSAINK [peptide], the “transfection efficiency (in words)” value is “lower transfection efficiency” in series [1]; “poor results compared to both the lipofectamine system and the PA system” in series [1] (listed as peptide control). Regarding `CCCCCCCCCCCCCCCC(=O)NCCCC[C@H](NC(=O)[C@H](C)NC(=O)[C@H](C)NC(=O)[C@H](C)NC(=O)[C@H](CC(C)C)NC(=O)[C@H](CC(C)C)NC(=O)[C@H](CC(C)C)NC(=O)[C@H](CCCCN)NC(=O)[C@H](CC(N)=O)NC(=O)[C@@H](NC(=O)[C@H](C)NC(=O)[C@H](CO)NC(=O)[C@H](CCC(N)=O)NC(=O)[C@H](Cc1ccc(O)cc1)NC(=O)[C@@H](NC(=O)CNC(=O)[C@H](CC(C)C)NC(=O)[C@H](CCCNC(=N)N)NC(=O)[C@H](CCCCN)NC(=O)[C@H](C)NC(=O)[C@@H](NC(=O)[C@H](CCCCN)NC(=O)[C@@H](N)CCCNC(=N)N)[C@@H](C)O)C(C)C)[C@@H](C)CC)C(=O)O` [DNA-binding PA] (H-RKTAKRLGVYQSAINKLLLAAAK(Palmitoyl)-OH), the “toxicity to P19 cells” value in the series with P19 cells is on record as “nontoxic”.
